From PMC7906020, “Trp-Containing Antibacterial Peptides Impair Quorum Sensing and Biofilm Development in Multidrug-Resistant Pseudomonas aeruginosa and Exhibit Synergistic Effects With Antibiotics” (Frontiers in Microbiology, 2021)
Where “and” joins values, the source holds several entries; their conditions need not be identical. Equal values may be shown once. Read-outs that look alike come from different tables or passages of the source.

Experiments:
[1] = test system: rhamnolipid production in MRPA0108; assay: Rhamnolipid production, orcinol method; assay type: cell-based, Pseudomonas aeruginosa; conditions: peptide at 1/4 × MIC, 24 h, absorbance 420 nm, vs control, triplicate
Protocol: (§1) The culture supernatant was obtained after centrifugation at 12,000×g for 10 min. (1) LasB elastase activity was measured using elastin-Congo red (ECR) as the substrate, as described by [Pattnaik et al. (2018)]. Briefly, 100 μl of the culture supernatant was added to 900 μl of ECR buffer (100 mM Tris-HCl, 1 mM CaCl2, pH 7.5) containing 10 mg of ECR and then incubated with shaking at 37°C for 18 h. Then, 100 μl of 0.12 M EDTA was added to stop the reaction. The insoluble ECR was removed by centrifugation, and the supernatant absorbance was measured at 495 nm. The optical density (OD) 495 nm/OD 600 nm represents the elastase activity. (2) LasA protease activity was measured as follows ([Pattnaik et al., 2018]): first, the culture supernatant was filtered to remove the bacterial cells, and then 150 μl of sterile-filtered supernatant was added to 2% azocasein (prepared in 50 mM Tris-HCl) and incubated for 4 h at 37°C. Trichloroacetic acid (TCA, 10%) was added to precipitate the undigested substrate. After centrifugation at 10,000 rpm for 10 min, 1 M NaOH was added to the supernatant, and the relative protease activity was measured at OD 440 nm. (3) The pyocyanin assay was based on the absorbance of excreted pyocyanin at 520 nm in an acidic solution ([Kong et al., 2005]). Three milliliters of culture supernatant were mixed with 2 ml of chloroform for 20 min, and then the pyocyanin from the chloroform phase was reextracted using 0.2 M HCl for 15 min to obtain a pink-colored pyocyanin solution. The OD 520 nm was measured to evaluate the change in pyocyanin content. (4) Rhamnolipid detection was carried out as previously described ([Wittgens et al., 2011]). Briefly, 500 μl of culture supernatant was mixed with 500 μl of ethyl acetate and vortexed vigorously for 15 s to extract rhamnolipid. After centrifugation at 10,000×g for 5 min at 4°C, the organic phase containing rhamnolipids was obtained and evaporated at room temperature overnight. The rhamnolipid extract dissolved in ultrapure water was mixed with orcinol reagent (0.19% orcinol in 53% H2SO4) and incubated at 80°C for 30 min. The absorbance was measured at 420 nm. (5) The level of C4-HSL was quantified by GC-MS as previously described ([Guo et al., 2012]).

MRPA0108 = assay: Checkerboard assay (FICI) of peptides with antibiotics; assay type: cell-based, Pseudomonas aeruginosa; conditions: MRPA0108, 24 h 37°C, median of at least three experiments, synergy ≤ 0.5, additive 0.5-1, indifference 1-2
Protocol: The synergistic effect of peptides and antibiotics was evaluated using the checkerboard method, in which the fractional inhibitory concentration index (FICI) was used to analyze the type of interaction between compounds ([Berditsch et al., 2015]). A 100 μl inoculum of 10^5 CFU/ml planktonic bacteria was added to the respective wells of 96-well microtiter plates, and then serial dilutions of peptide and antibiotic at 100 μl volumes were added to each well and incubated at 37°C for 24 h. The OD 600 nm value was measured with a microplate plate reader (Varioskan Flash Microplate Reader, Thermo Fisher Scientific Co., Beijing) as an indicator of growth inhibition. The resulting checkerboard contained each combination of peptide and antibiotic in 9 doubly increasing concentrations, with wells containing the highest concentration of each antibiotic at opposite corners. The concentrations tested for every combination of peptide-antibiotic were their respective MICs. MH medium and the peptide/antibiotic combination served as negative and positive controls, respectively. The FICI is calculated as FICa plus FICb, where FICa is the MIC of the peptide in the presence of antibiotics/the MIC of the peptide alone, and FICb is the MIC of the antibiotic in the presence of peptide/the MIC of the antibiotic alone. Drug interactions were defined as follows: synergy, FICI ≤ 0.5; additive effect, 0.5 < FICI ≤ 1; and indifference, 1 < FICI ≤ 2 ([Hollander et al., 1998]; [Yoon et al., 2004]). The results were recorded in at least three independent experiments, and the median FICI values were used in the analysis.

MRPA0108 strain = conditions: previous study, ref Han et al., 2020; cited from earlier work
Text: Supplement Table_1.docx, table 1: Table S1 Biological characteristics and antibacterial activities of the Trp-containing antimicrobial peptides (32) | column: MIC(μM)

[2] = cited from earlier work
Text: Supplement Table_1.docx, table 1: Table S1 Biological characteristics and antibacterial activities of the Trp-containing antimicrobial peptides (32) | column: Hemolysis (μM)

[3] = test system: LasB elastase of MRPA0108; assay: LasB elastase activity, elastin-Congo red method; assay type: cell-based, Pseudomonas aeruginosa; conditions: peptide at 1/4 × MIC, 24 h, 37°C; ECR substrate, OD495/OD600; vs control; triplicate
Protocol: as §1, with “The rhamnolipid extract dissolved in ultrapure water was mixed with orcinol reagent (0.19% orcinol in 53% H2SO4) and incubated at 80°C for 30 min.” left out

[4] = test system: pyocyanin production in MRPA0108; assay: Pyocyanin production assay; assay type: cell-based, Pseudomonas aeruginosa; conditions: peptide at 1/4 × MIC, 24 h; OD 520 nm; vs untreated control; triplicate
Protocol: The culture supernatant was obtained after centrifugation at 12,000×g for 10 min. (1) LasB elastase activity was measured using elastin-Congo red (ECR) as the substrate, as described by [Pattnaik et al. (2018)]. Briefly, 100 μl of the culture supernatant was added to 900 μl of ECR buffer (100 mM Tris-HCl, 1 mM CaCl2, pH 7.5) containing 10 mg of ECR and then incubated with shaking at 37°C for 18 h. Then, 100 μl of 0.12 M EDTA was added to stop the reaction. The insoluble ECR was removed by centrifugation, and the supernatant absorbance was measured at 495 nm. The optical density (OD) 495 nm/OD 600 nm represents the elastase activity. (2) LasA protease activity was measured as follows ([Pattnaik et al., 2018]): first, the culture supernatant was filtered to remove the bacterial cells, and then 150 μl of sterile-filtered supernatant was added to 2% azocasein (prepared in 50 mM Tris-HCl) and incubated for 4 h at 37°C. […] After centrifugation at 10,000 rpm for 10 min, 1 M NaOH was added to the supernatant, and the relative protease activity was measured at OD 440 nm. (3) The pyocyanin assay was based on the absorbance of excreted pyocyanin at 520 nm in an acidic solution ([Kong et al., 2005]). […] The OD 520 nm was measured to evaluate the change in pyocyanin content. […] The absorbance was measured at 420 nm. (5) The level of C4-HSL was quantified by GC-MS as previously described ([Guo et al., 2012]).

MRPA0108 biofilms = assay: Confocal laser scanning microscopy of biofilms (LIVE/DEAD staining); assay type: cell-based, Pseudomonas aeruginosa; conditions: 24 h; for percentage of dead/live cells in biofilm: SYTO9/PI, control 8.7%
Protocol: Biofilms of MRPA0108 were visualized by confocal microscopy. Mid-log growth-phase bacteria were diluted to 1 × 10^7 CFU/ml. […] LB liquid medium and erythromycin were used as negative and positive controls, respectively. After incubation, the supernatant was removed, and the slides were washed and stained in a dark environment for 30 min using a LIVE/DEAD BacLight^TM Bacterial Viability Kit (Invitrogen, Life Technologies, Shanghai, China). The slides were washed three times and imaged with a confocal laser scanning microscope (LSM 710, Carl Zeiss, Germany) with excitation/emission wavelengths of 480/500 and 490/635 nm for SYTO9 and propidium iodide (PI), respectively. SYTO9 was used to indicate live bacteria, and PI was used to mark dead bacteria.

Substance | inhibition of rhamnolipid production [1] | FICI in combination with ceftazidime (MRPA0108) | FICI in combination with piperacillin (MRPA0108) | MIC (MRPA0108 strain) | Hemolysis ([2]; as previously reported, ref Bi et al., 2013) | decrease of LasB elastase activity [3] | reduction of pyocyanin production [4] | average biofilm thickness (MRPA0108 biofilms; after treatment with low concentrations of peptide (1 × MIC or 2 × MIC), 37°C, control biofilm 6 μm) | percentage of dead/live cells in biofilm (MRPA0108 biofilms; peptide at 1 × MIC) | percentage of dead/live cells in biofilm (MRPA0108 biofilms; peptide at 2 × MIC) | FICI in combination with levofloxacin (MRPA0108) | Hemolysis [2]
IKKILSKIKKWLK-NH2 [L11W] | 24.3% | 0.25 | 0.28–0.49 and 0.34 | 25 µM | > 500 µM | – | – | – | – | – | – | –
IKKIWSKIKKLLK-NH2 [L5W] | 40.7% | 0.23 | 0.37 | 12.5 µM | – | 24.1% | 69.4% | 1.5–2.5 μm | 21.4% | 32.5% | 0.62 | > 500 µM
IKKWWSKIKKLLK-NH2 [I4WL5W] | 37.5% | 0.43 | 0.68 | 12.5 µM | – | – | – | – | – | – | 1.12 | > 500 µM
WKKIWSKIKKLLK-NH2 [I1WL5W] | 38.8% | 0.37 | 0.59 | 12.5 µM | – | – | – | – | – | – | 0.75 | > 500 µM
